Experimental data published in US11384055B2 (BIOMARIN PHARMACEUTICAL INC., priority 2017, dated 2022).

These molecules were tested against T1, Human GO (Homo sapiens, UniProt Q9UJM8) (assay: GO enzymatic assay (coupled fluorescence/HRP assay, glycolate substrate)). Conditions: Table 2; read-out: Range (range of IC50 values calculated from the enzymatic assays).
T1 construct: purchased Novus Biologicals NBP1-72412
T1 sequence (Q9UJM8 1-370): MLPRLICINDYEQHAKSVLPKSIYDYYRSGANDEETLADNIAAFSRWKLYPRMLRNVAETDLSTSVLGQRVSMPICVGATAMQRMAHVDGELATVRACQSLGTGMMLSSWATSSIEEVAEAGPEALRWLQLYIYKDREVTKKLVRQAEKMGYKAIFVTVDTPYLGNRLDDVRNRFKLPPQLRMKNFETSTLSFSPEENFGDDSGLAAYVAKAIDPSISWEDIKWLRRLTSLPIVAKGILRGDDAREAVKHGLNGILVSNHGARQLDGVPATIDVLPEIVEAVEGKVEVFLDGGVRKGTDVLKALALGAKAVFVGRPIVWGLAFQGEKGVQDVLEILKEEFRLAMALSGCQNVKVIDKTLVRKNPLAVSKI
Assay type: biochemical
Summary of the method: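 Human GO incubated with glycolate substrate in 50 mM potassium phosphate, pH 7, with varying inhibitor concentrations. Activity read by coupled HRP fluorescence. IC50 taken from variable-slope sigmoidal dose-response fits of percent inhibition relative to DMSO control.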

SMILES | IC50
O=C(O)c1[nH]nnc1Sc1ccc(-c2ccc(OC(F)(F)F)cn2)cc1 [Compound 321, 4-((4-(5-(trifluoromethoxy)pyridin-2-yl)phenyl)thio)-1H-1,2,3-triazole-5-carboxylic acid 2,2,2-trifluoroacetate] | < 100 nM
O=C(O)c1[nH]nnc1CSc1ccc(-c2ccc(Cl)c(Cl)c2)cc1 [Compound 322, 4-(((3′,4′-dichloro-[1,1′-biphenyl]-4-yl)thio)methyl)-1H-1,2,3-triazole-5-carboxylic acid 2,2,2-trifluoroacetate] | < 100 nM
O=C(O)c1[nH]nnc1SC1CCN(c2ccc(Cl)c(Cl)c2)CC1 [Compound 323, 4-((1-(3,4-dichlorophenyl)piperidin-4-yl)thio)-1H-1,2,3-triazole-5-carboxylic acid 2,2,2-trifluoroacetate] | < 100 nM
O=C(O)c1[nH]nnc1SC1CCN(c2cc(Cl)cc(Cl)c2)CC1 [Compound 325, 4-((1-(3,5-dichlorophenyl)piperidin-4-yl)thio)-1H-1,2,3-triazole-5-carboxylic acid 2,2,2-trifluoroacetate] | < 100 nM
O=C(O)c1[nH]nnc1CSc1ccc(-c2cc(Cl)cc(Cl)c2)cc1 [Compound 328, 4-(((3′,5′-dichloro-[1,1′-biphenyl]-4-yl)thio)methyl)-1H-1,2,3-triazole-5-carboxylic acid] | < 100 nM
O=C(O)c1[nH]nnc1CSc1ccc(-c2ccc(OC(F)(F)F)c(Cl)c2)cc1 [Compound 329, 4-(((3′-chloro-4′-(trifluoromethoxy)-[1,1′-biphenyl]-4-yl)thio)methyl)-1H-1,2,3-triazole-5-carboxylic acid] | < 100 nM
CN(Cc1nn[nH]c1C(=O)O)c1ccc(-c2ccc(OC(F)(F)F)cc2)cc1 [Compound 333, 4-((methyl(4′-(trifluoromethoxy)-[1,1′-biphenyl]-4-yl)amino)methyl)-1H-1,2,3-triazole-5-carboxylic acid 2,2,2-trifluoroacetate] | < 100 nM
O=C(O)c1[nH]nnc1-c1cc(OCC2CC2)cc(C(F)(F)F)c1 [Compound 334, 4-(3-(cyclopropylmethoxy)-5-(trifluoromethyl)phenyl)-1H-1,2,3-triazole-5-carboxylic acid] | < 100 nM
O=C(O)c1[nH]nnc1[S+]([O-])c1ccc(Cl)c(OCC2CCCCC2)c1 (centres unmarked) [Compound 335, 4-((4-chloro-3-(cyclohexylmethoxy)phenyl)sulfinyl)-1H-1,2,3-triazole-5-carboxylic acid] | 1000 to 10000 nM
O=C(O)c1[nH]nnc1Sc1ccc(Cl)c(OCC2CCCCC2)c1 [Compound 336, 4-((4-chloro-3-(cyclohexylmethoxy)phenyl)thio)-1H-1,2,3-triazole-5-carboxylic acid] | < 100 nM
O=C(O)c1[nH]nnc1Sc1ccc(N2CCC(F)(F)CC2)cc1 [Compound 339, 4-((4-(4,4-difluoropiperidin-1-yl)phenyl)thio)-1H-1,2,3-triazole-5-carboxylic acid 2,2,2-trifluoroacetate] | < 100 nM
O=C(O)c1[nH]nnc1Sc1ccc(-c2ccc(N3CCCCC3)cc2)c(Cl)c1 [Compound 342, 4-((2-chloro-4′-(piperidin-1-yl)-[1,1′-biphenyl]-4-yl)thio)-1H-1,2,3-triazole-5-carboxylic acid 2,2,2-trifluoroacetate] | < 100 nM
O=C(O)c1[nH]nnc1Sc1cc(OCC2CCCC2)ccc1Cl [Compound 343, 4-((2-chloro-5-(cyclopentylmethoxy)phenyl)thio)-1H-1,2,3-triazole-5-carboxylic acid] | < 100 nM
N#Cc1ccc(N2CCC(Sc3nn[nH]c3C(=O)O)CC2)cc1 [Compound 344, 4-((1-(4-cyanophenyl)piperidin-4-yl)thio)-1H-1,2,3-triazole-5-carboxylic acid 2,2,2-trifluoroacetate] | < 100 nM
CC1CCCCN1c1ccc(-c2ccc(Sc3nn[nH]c3C(=O)O)cc2)cc1 (centres unmarked) [Compound 349, 4-((4′-(2-methylpiperidin-1-yl)-[1,1′-biphenyl]-4-yl)thio)-1H-1,2,3-triazole-5-carboxylic acid 2,2,2-trifluoroacetate] | < 100 nM
O=C(O)c1[nH]nnc1CSC1CCN(c2cc(Cl)cc(Cl)c2)CC1 [Compound 350, 4-(((1-(3,5-dichlorophenyl)piperidin-4-yl)thio)methyl)-1H-1,2,3-triazole-5-carboxylic acid 2,2,2-trifluoroacetate] | < 100 nM
O=C(O)c1[nH]nnc1Oc1ccc(Cl)c(OCC2CCCC2)c1 [Compound 353, 4-(4-chloro-3-(cyclopentylmethoxy)phenoxy)-1H-1,2,3-triazole-5-carboxylic acid 2,2,2-trifluoroacetate] | < 100 nM
O=C(O)c1[nH]nnc1OC1CCN(c2cc(Cl)cc(OC(F)(F)F)c2)CC1 [Compound 354, 4-((1-(3-chloro-5-(trifluoromethoxy)phenyl)piperidin-4-yl)oxy)-1H-1,2,3-triazole-5-carboxylic acid] | < 100 nM

Results, then the molecule that gave them:

IC50 | SMILES
< 100 nM | O=C(O)c1[nH]nnc1SC1Cc2ccc(OC(F)(F)F)cc2C1 (centres unmarked) [Compound 320, 4-((5-(trifluoromethoxy)-2,3-dihydro-1H-inden-2-yl)thio)-1H-1,2,3-triazole-5-carboxylic acid]
< 100 nM | O=C(O)c1[nH]nnc1SC1CCN(c2ccc(C(F)(F)F)cc2)CC1 [Compound 324]
< 100 nM | O=C(O)c1[nH]nnc1SC1CCC(c2cccc(OC(F)(F)F)c2)CC1 (centres unmarked) [Compound 326, 4-((4-(3-(trifluoromethoxy)phenyl)cyclohexyl)thio)-1H-1,2,3-triazole-5-carboxylic acid]
< 100 nM | O=C(O)c1[nH]nnc1SC1CCC(c2cccc(C(F)(F)F)c2)CC1 (centres unmarked) [Compound 327, 4-((4-(3-(trifluoromethyl)phenyl)cyclohexyl)thio)-1H-1,2,3-triazole-5-carboxylic acid]
< 100 nM | O=C(O)c1[nH]nnc1SC1CCN(c2cc(Cl)ccc2Cl)CC1 [Compound 330, 4-((1-(2,5-dichlorophenyl)piperidin-4-yl)thio)-1H-1,2,3-triazole-5-carboxylic acid]
< 100 nM | O=C(O)c1[nH]nnc1S[C@H]1CC[C@@H](c2cc(Cl)cc(Cl)c2)CC1 [Compound 331, 4-(((cis)-4-(3,5-dichlorophenyl)cyclohexyl)thio)-1H-1,2,3-triazole-5-carboxylic acid]
< 100 nM | O=C(O)c1[nH]nnc1S[C@H]1CC[C@@H](c2ccc(C(F)(F)F)cc2)CC1 [Compound 332, 4-(((cis)-4-(4-(trifluoromethyl)phenyl)cyclohexyl)thio)-1H-1,2,3-triazole-5-carboxylic acid]
< 100 nM | O=C(O)c1[nH]nnc1S[C@H]1CC[C@@H](c2cc(Cl)cc(OC(F)(F)F)c2)CC1 [Compound 337, 4-(((cis)-4-(3-chloro-5-(trifluoromethoxy)phenyl)cyclohexyl)thio)-1H-1,2,3-triazole-5-carboxylic acid]
< 100 nM | O=C(O)c1[nH]nnc1SC1CCN(c2cc(Cl)cc(OC(F)(F)F)c2)CC1 [Compound 338, 4-((1-(3-chloro-5-(trifluoromethoxy)phenyl)piperidin-4-yl)thio)-1H-1,2,3-triazole-5-carboxylic acid]
< 100 nM | O=C(O)c1[nH]nnc1SC1CCC(c2cccc(N3CCCCC3)c2)CC1 (centres unmarked) [Compound 340, 4-((4-(3-(piperidin-1-yl)phenyl)cyclohexyl)thio)-1H-1,2,3-triazole-5-carboxylic acid 2,2,2-trifluoroacetate]
< 100 nM | CN1CCN(c2ccc([C@H]3CC[C@@H](Sc4nn[nH]c4C(=O)O)CC3)cc2)CC1 [Compound 341, 4-(((cis)4-(4-(4-methylpiperazin-1-yl)phenyl)cyclohexyl)thio)-1H-1,2,3-triazole-5-carboxylic acid 2,2,2-trifluoroacetate]
< 100 nM | O=C(O)c1[nH]nnc1S[C@H]1CC[C@@H](c2ccc(Cl)c(Cl)c2)CC1 [Compound 345, 4-(((cis)-4-(3,4-dichlorophenyl)cyclohexyl)thio)-1H-1,2,3-triazole-5-carboxylic acid 2,2,2-trifluoroacetate]
< 100 nM | O=C(O)c1[nH]nnc1SC1CCN(c2ccc(OC(F)(F)F)c(Cl)c2)CC1 [Compound 346, 4-((1-(3-chloro-4-(trifluoromethoxy)phenyl)piperidin-4-yl)thio)-1H-1,2,3-triazole-5-carboxylic acid]
< 100 nM | O=C(O)c1[nH]nnc1S[C@H]1CC[C@@H](c2ccc(N3CCCC3)cc2)CC1 [Compound 347, 4-(((cis)-4-(4-(pyrrolidin-1-yl)phenyl)cyclohexyl)thio)-1H-1,2,3-triazole-5-carboxylic acid 2,2,2-trifluoroacetate]
< 100 nM | O=C(O)c1[nH]nnc1S[C@H]1CC[C@@H](c2ccc(OC(F)(F)F)cc2)CC1 [Compound 348, 4-(((cis)-4-(4-(trifluoromethoxy)phenyl)cyclohexyl)thio)-1H-1,2,3-triazole-5-carboxylic acid]
100 to 1000 nM | O=C(O)c1[nH]nnc1Sc1cccc(OC2CCCC2)c1 [Compound 351, 4-((3-(cyclopentyloxy)phenyl)thio)-1H-1,2,3-triazole-5-carboxylic acid 2,2,2-trifluoroacetate]
< 100 nM | N#Cc1ccc([C@H]2CC[C@@H](Sc3nn[nH]c3C(=O)O)CC2)cc1 [Compound 352, 4-(((cis)-4-(4-cyanophenyl)cyclohexyl)thio)-1H-1,2,3-triazole-5-carboxylic acid]
